Tests used:
[1] = test system: rabbit corneal endothelium; assay: Ratio of corneas without opacity and edema (digital camera images) after trans-corneal freezing damage; type: in vivo; details: angiogenin 200 μg/mL
Experimental: (§1) 30 eyeballs of 15 healthy white New Zealand rabbits weighing about 2.0 kg to about 3.0 kg without external opacification were anesthetized by intramuscular injection with 12.5 mg/kg of tiletamine/zolazepam (Zoletil®, VirbacLab, France) and 12.5 mg/kg of zylazine (Rompun®, BayerKorea, Korea). Afterwards, 0.5% povidone-iodine was used for disinfection of the whole range of experimental sight. Referring to FIG. 1, an 8 mm-diameter stainless steel rod as a probe was immersed in liquid nitrogen for 3 minutes, removed therefrom once the temperature of the liquid nitrogen reached −196° C., and brought into contact to the central cornea for 15 seconds. Then, each of the eyeballs was washed with 10 cc of 0.9% saline solution. In order to prevent the occurrence of corneal infection, the rabbit corneas were given instillation of Levofloxacin (Cravit®, Santen, Japan) three times a day for 3 days after the damage was induced.
(§2) 3 groups consisting of 10 eyeballs given instillation of angiogenin (200 μg/mL), 7 eyeballs given Y-27632 (10 mM) inhibitor of Rho-associated coiled-coil kinase (ROCK) pathway, and 7 eyeballs as a control group given phosphate-buffered solution (PBS) were each subjected to 50 μl of instillation at a time, and more particularly, 6 times a day for the first 2 days, and then, 4 times a day for the following 2 days, starting immediately after inducing freeze-damages to the trans-corneal endothelium. That is, the instillation was performed 20 times in total for 4 days.
Then, the groups were subjected to the evaluation of corneal opacity and corneal edema by using a digital camera (VLUUNV100HD, Samsung, Suwon, Korea) to obtain images taken in a diagonal direction.
Experiments have been carried out to identify effects of angiogenin-induced PI3k-Akt signaling pathway in terms of recovering the corneal transparency after inducing damages to the corneal endothelium. After inducing freeze-damages to the corneal endothelium, 4 eyeballs out of 30 rabbit eyeballs in total were subjected to 50 μl of each of 200 μg/mL of angiogenin and 200 μM of PI3k-Akt pathway inhibitor, LY294002 instillation at a time every 3 minutes, and more particularly, 6 times a day for the first 2 days, and then, 4 times a day for the following one day. That is, the instillation was performed 16 times in total for 3 days.

[2] = test system: rabbit corneal endothelial cells; assay: In vitro scratch wound healing of cultured rabbit corneal endothelial cells; type: cell-based; details: for Wound healing index: angiogenin 2 μg/ml, mean ± SE
Experimental: A corneal endothelial tissue segment obtained from remaining corneal portions other than the central 8 mm corneal portion in cadaveric cornea donated for transplantation and a corneal endothelial tissue segment of a normal rabbit were cultured. Then, each of the corneal tissues was divided into 6 pieces and washed by shaking 6 times in a petri dish to which 7 ml of 5% penicillin/streptomycin (P/S) was added. Then, the washed tissues were each transferred to a 6-well dish such that the endothelial layer was facing down, and the tissues were semi-dried until the dishes were slightly drained. Next, the corneal endothelial cells of the rabbit cornea were cultured in a culture medium (EGM™-2BulletKit™, Lonza, Allendale, USA) containing human epidermal growth factor (hEGF), hydrocortisone, 5% fetal bovine serum (FBS), human […] (hFGF), insulin-like growth factor (IGF), ascorbic acid, gentamicin, and amphotericin-B (EGM™-2BulletKit™, Lonza, Allendale, USA), and the corneal endothelial cells of the human cornea were cultured in a culture medium (Opti-MEM®, Gibco®, New York, USA) supplemented with 8% FBS, calcium (CaCl2), chondroitinsulfate, ascorbic acid, multi-vitamin solution, gentamicin, anti-Pseudomonas aeruginosa antibiotic, pituitary extract, epidermal growth factor (EGF), and nerve growth factor (NGF), for about 5 to 7 days.
Experiments have been carried to identify angiogenin effects on migration and proliferation of the corneal endothelial cells. When the cultured rabbit corneal endothelial cells had about 80-90% confluency in three 6-well dishes, the central part of each well was scratched by a tip of a 200 μl pipette to make wounds. Then, each of the three 6-well dishes was replaced by a culture medium containing 1) 5% FBS (in the control group), 2) Y-27632 (10 μM), and 3) angiogenin (2 μg/ml). At every 0 hour, 12 hours, 24 hours, and 48 hours, digital images of the remaining wounded areas were obtained at 40× magnification of the optical microscope, and measured in pixels by using the Image J software. In addition, each of the three 6-well dishes containing the cultured corneal endothelial cells in the human was scratched in the same manner as described above to make wounds, and then, replaced by a culture medium containing 1) 5% FBS (in the control group), 2) Y-27632 (10 μM), and 3) angiogenin (5 μg/ml). At every 6 hours and 24 hours, the wounded areas were measured by using the Image J software. The ratio of initial wounded area versus recovered area was defined as wound healing index, which is calculated as shown below. Here, the initial wounded area was corrected to be equal before the calculation. Wound healing index(%)=(Initial wounded area−Remaining wounded area)/Initial wounded area

[3] = test system: rabbit corneal endothelium; assay: Alizarin red S-staining of corneal endothelium wounded area; type: in vivo; details: for Corneal endothelium wounded area observed by alizarin red S-staining: 192 hours (8th day) after freeze damage, compared with control group (p=0.050); for Morphology (hexagonality) of endothelial cells around the wounded area: 192 hours, 200× magnification
Experimental: as §1, §2
Two eyeballs out of 30 eyeballs in total were each used as a negative control group of normal corneal endothelium and as a positive control group being subjected to alizarin red S-staining immediately after inducing freeze-damages to the trans-corneal endothelium. An overdose of KCl was administrated into the rest of the eyeballs by intramuscular injection 192 hours (8th day) after inducing freeze-damages to the trans-corneal, and accordingly, these eyeballs were sacrificed. Then, 3 eyeballs were removed for each of the control group, the group given angiogenin instillation, and the group given Y-27632 instillation. Then, the whole cornea was pulled off with respect to the corneal limbal boundary, immersed in 1% alizarin red S-staining solution (Lab Chem, Pittsburgh, USA) for 2 minutes, washed with 0.9% saline solution, and then, wet-mount with the endothelium facing upward. Images thereof were immediately obtained after observation by using an optical microscope, and then, the wounded area of the cornea was measured in pixels for a digital image at 40× magnification by using the Image J software (National Institutes of Health (NIH); http://rsbweb.nih.gov/ij/), and the endothelial cells around the wounded areas were observed and compared in terms of hexagonality at 200× magnification.

[4] = 48 h after freeze damage, Y-27632 10 mM instillation
[5] = 72 h after freeze damage, Y-27632 10 mM, LY294002 200 μM instillation
[6] = 144 h after freeze damage, Y-27632 10 mM instillation
[7] = 192 h after freeze damage, Y-27632 10 mM instillation

Row | Compound | Ratio of number of cornea without opacity and edema (digital camera images) [1, 4] [%] | Ratio of number of cornea without opacity and edema (digital camera images) [1, 5] [%] | Ratio of number of cornea without opacity and edema (digital camera images) [1, 6] [%] | Ratio of number of cornea without opacity and edema (digital camera images) [1, 7] [%] | Wound healing index compared with the control group ([2]; Y-27632 10 μM, 12, 24, 48 hours) | Corneal endothelium wounded area observed by alizarin red S-staining [3] | Morphology (hexagonality) of endothelial cells around the wounded area [3] | Wound healing index ([2]; 12 hours) [%] | Wound healing index ([2]; 24 hours) [%] | Wound healing index ([2]; 48 hours) [%]
1 | C[C@@H](N)[C@H]1CC[C@H](C(=O)Nc2ccncc2)CC1 [Y-27632, reference compound] | 0 | 14.3 | 14.3 | 14.3 | did not show significant difference | smaller wounded areas than those of the control group | significant modification of cell morpology |  |  | 
2 | Angiogenin: 14.4-kDa single chain protein of 123 amino acids, secreted protein capable of inducing angiogenesis | 10 | 20 | 37.5 | 50 |  | smallest the corneal endothelium wounded area | corneal endothelial cells in even hexagonality | 28.7±2.9 | 66.7±4.3 | 78.7±2.9

Source: patent US9050301B2, “Pharmaceutical composition for treatment of corneal endothelial wounds containing angiogenin” (Chung-Ang University Industry-Academy Cooperation Foundation, priority 2013, dated 2015)
